The nature of series [1]: Dynamic vapor sorption (DVS) sorption-desorption. The conditions noted are these: for hygroscopicity: DVS, water, 25° C., 0% RH to 95% RH. It is filed as physicochemical. Here is the method: Dynamic Vapor Sorption (DVS)
Typically, 20-50 mg of the test substances were mounted in a gauze basket and transferred to the sample port. Excess static electricity was removed throughout sample handling and sample mounting using a 210Po static eliminator. Instrument performance checks were completed using traceable samples of sodium chloride and lithium chloride.

For series [2] the following is noted: based on X-ray powder diffraction data.
Protocol: X-Ray Powder Diffraction (XRPD)
X-ray powder diffractograms were acquired using a Bruker D5000 diffractometer in Bragg-Brentano configuration. Extended acquisition parameters were employed for each batch of the drug substance, as detailed below. • Acquisition parameters: • Source: CuKα • Wavelength: 1.5406 Å • Scan range: 2-40° (2θ) • Step size: 0.01° (2θ) • Time per step: 4.0 s • Divergence slit width: 2 mm • Antiscatter slit width: 2 mm • Detector slit width: 0.2 mm • Sample rotation: Engaged • Tube accelerating potential: 40 kV • Tube accelerating current: 30 mA • Temperature: Ambient (nominally 18-22° C.)
Approximately 2 mg of each sample was mounted on a silicon base for the analyses.
All the data were smoothed by use of Fourier algorithms and the background was subtracted from each diffractogram. Instrument performance checks were completed prior to measurements using a NIST traceable standard of corundum and also using a standard of Arkansas stone quartz.
Dynamic vapor sorption-desorption experiments were carried out using a DVS Resolution instrument supplied by Surface Measurement Systems. […]

In the case of `NC1(c2ccccc2Cl)CCCC(O)C1=O.O=C(O)CC(=O)O` (stereo not drawn) [RR-HNK malonate, 2R,6R-hydroxynorketamine (RR-HNK) Malonate], the hygroscopicity entry in series [1] was “non-hygroscopic”; in series [1] (listed as (2R,6R)-hydroxynorketamine malonate) it was “very low hygroscopicity”.

Take `N[C@@]1(c2ccccc2Cl)CCC[C@@H](O)C1=O.O=C(O)c1ccccc1O` [RR-HNK salicylate, 2R,6R-hydroxynorketamine (RR-HNK) Salicylate]: the hygroscopicity entry was “non-hygroscopic” in series [1] and “very low hygroscopicity” in series [1] (listed as (2R,6R)-hydroxynorketamine salicylate). In series [1] (over the entire range of relative humidities (0% RH to 95% RH)), the “water acquired in DVS isotherm” value is given as “acquires very little water”. For the same molecule, the “change of physical form on exposure to elevated relative humidities” value in series [2] is given as “does not change the physical form”.

Values taken from patent US12552737B2, “Salts of (2R, 6R)-hydroxynorketamine, their crystal forms, and methods of making the same” (THE UNITED STATES OF AMERICA, AS REPRESENTED BY THE …, priority 2019, dated 2026).
